One assay has as its target Cannabinoid receptor 1 (Homo sapiens, UniProt P21554).
The target in a further assay is Cannabinoid receptor 2 (Homo sapiens, UniProt P34972).

Each structure is given as a SMILES string.

Sequence of Cannabinoid receptor 2 (P34972 whole entry): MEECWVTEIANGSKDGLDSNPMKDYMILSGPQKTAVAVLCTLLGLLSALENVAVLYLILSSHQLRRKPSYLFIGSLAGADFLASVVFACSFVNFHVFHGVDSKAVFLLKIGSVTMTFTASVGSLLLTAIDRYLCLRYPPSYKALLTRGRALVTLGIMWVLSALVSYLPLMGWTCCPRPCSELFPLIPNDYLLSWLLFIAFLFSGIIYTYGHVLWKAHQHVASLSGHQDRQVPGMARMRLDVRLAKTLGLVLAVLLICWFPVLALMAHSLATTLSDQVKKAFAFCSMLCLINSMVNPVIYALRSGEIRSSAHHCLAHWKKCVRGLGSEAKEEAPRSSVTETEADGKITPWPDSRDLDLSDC
Sequence of Cannabinoid receptor 1 (P21554 whole entry): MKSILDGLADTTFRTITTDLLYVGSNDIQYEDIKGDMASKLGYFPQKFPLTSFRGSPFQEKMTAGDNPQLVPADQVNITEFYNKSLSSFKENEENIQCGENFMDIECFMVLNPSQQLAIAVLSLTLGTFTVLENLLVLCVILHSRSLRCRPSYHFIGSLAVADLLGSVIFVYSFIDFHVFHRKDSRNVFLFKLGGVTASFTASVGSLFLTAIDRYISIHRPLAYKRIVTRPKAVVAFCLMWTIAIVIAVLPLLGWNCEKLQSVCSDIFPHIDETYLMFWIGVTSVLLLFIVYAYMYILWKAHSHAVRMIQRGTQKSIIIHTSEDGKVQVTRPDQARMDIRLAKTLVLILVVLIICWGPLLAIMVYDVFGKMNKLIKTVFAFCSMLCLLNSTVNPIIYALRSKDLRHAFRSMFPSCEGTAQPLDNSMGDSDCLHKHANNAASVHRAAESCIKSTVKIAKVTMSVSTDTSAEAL

The Ki is the equilibrium dissociation constant of an inhibitor or competing ligand from its target. A lower Ki goes with higher affinity. In turn, `CCCCCCC(C)(C)c1cc(O)c2c(c1)OC(C)(C)[C@@H]1CC=C(CO)CC21` (stereo partly drawn) [(R)-3-(1,1-Dimethyl-heptyl)-9-hydroxymethyl-6,6-dimethyl-6a,7,10,10a-tetrahydro-6H-benzo[c]chromen-1-ol] gave an inhibitory constant (Ki) on Cannabinoid receptor 1 of 0.41 nM. For the compound `O=S(=O)(CCCC(F)(F)F)Oc1cccc(Oc2ccc(O)c3c2CC(CO)=C3)c1` [KN 38-7271], the affinity at Cannabinoid receptor 2 corresponds to a Ki of 5.96 nM.

These data come from BindingDB's records for doi:10.1124/jpet.302.1.359 (Bayer, 2002).
